Results as given in ChEMBL document CHEMBL4507315 (2021).

Columns and labels:
[1] = biological target: Dual specificity mitogen-activated protein kinase kinase 4 (Homo sapiens) (UniProt P45985); settings: Compound concentration 100.0 nM
[2] = biological target: Serine/threonine-protein kinase B-raf (Homo sapiens) (UniProt P15056); settings: Compound concentration 100.0 nM
[3] = system: Phosphatidylinositol 4,5-bisphosphate 3-kinase catalytic subunit alpha isoform (Homo sapiens), P42336 [H1047L]; settings: Compound concentration 100.0 nM
[4] = biological target: Calcium/calmodulin-dependent protein kinase type II subunit alpha (Homo sapiens) (UniProt Q9UQM7); settings: Compound concentration 100.0 nM
[5] = biological target: Cyclin-dependent kinase 11A (Homo sapiens) (UniProt Q9UQ88); settings: Compound concentration 100.0 nM
[6] = biological target: Peripheral plasma membrane protein CASK (Homo sapiens) (UniProt O14936); settings: Compound concentration 100.0 nM
[7] = biological target: Ribosomal protein S6 kinase alpha-4 (Homo sapiens) (UniProt O75676); settings: Compound concentration 100.0 nM
[8] = biological target: cGMP-dependent protein kinase 1 (Homo sapiens) (UniProt Q13976); settings: Compound concentration 100.0 nM
[9] = biological target: Receptor tyrosine-protein kinase erbB-2 (Homo sapiens) (UniProt P04626); settings: Compound concentration 100.0 nM
[10] = system: Phosphatidylinositol 4,5-bisphosphate 3-kinase catalytic subunit alpha isoform (Homo sapiens), P42336 [Q546K]; settings: Compound concentration 100.0 nM
Chain of Phosphatidylinositol 4,5-bisphosphate 3-kinase catalytic subunit alpha isoform (Homo sapiens), P42336 [Q546K] (P42336 whole entry Q546K, canonical isoform): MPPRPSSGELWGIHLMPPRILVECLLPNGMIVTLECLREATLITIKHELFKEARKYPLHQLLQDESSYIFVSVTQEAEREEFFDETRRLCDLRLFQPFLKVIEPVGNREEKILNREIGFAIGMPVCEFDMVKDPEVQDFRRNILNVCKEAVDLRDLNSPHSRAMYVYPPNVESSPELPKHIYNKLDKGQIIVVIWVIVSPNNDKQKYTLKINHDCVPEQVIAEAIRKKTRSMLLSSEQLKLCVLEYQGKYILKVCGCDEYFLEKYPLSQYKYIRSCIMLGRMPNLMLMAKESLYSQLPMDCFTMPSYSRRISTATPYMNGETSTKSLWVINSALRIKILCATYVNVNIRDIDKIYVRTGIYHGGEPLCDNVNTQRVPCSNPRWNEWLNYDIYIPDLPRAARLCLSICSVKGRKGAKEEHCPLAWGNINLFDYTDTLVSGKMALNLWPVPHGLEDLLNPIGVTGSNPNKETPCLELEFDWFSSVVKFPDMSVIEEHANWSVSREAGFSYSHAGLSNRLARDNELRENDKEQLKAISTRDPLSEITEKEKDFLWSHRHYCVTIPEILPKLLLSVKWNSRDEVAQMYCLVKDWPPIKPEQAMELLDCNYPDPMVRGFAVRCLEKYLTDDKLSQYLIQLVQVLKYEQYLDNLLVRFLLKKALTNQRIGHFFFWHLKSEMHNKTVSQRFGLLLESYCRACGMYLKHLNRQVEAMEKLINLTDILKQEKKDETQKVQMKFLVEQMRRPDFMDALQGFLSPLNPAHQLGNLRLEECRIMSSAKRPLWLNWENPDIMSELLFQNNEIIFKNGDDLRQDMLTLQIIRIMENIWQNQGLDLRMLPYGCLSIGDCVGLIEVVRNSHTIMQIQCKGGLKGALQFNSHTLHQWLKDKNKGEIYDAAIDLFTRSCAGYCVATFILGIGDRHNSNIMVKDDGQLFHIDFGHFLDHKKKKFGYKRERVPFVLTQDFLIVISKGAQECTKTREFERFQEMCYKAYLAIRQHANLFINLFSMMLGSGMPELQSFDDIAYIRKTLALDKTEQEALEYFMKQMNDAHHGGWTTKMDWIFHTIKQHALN

[11] = biological target: Cyclin-dependent kinase 4 (Homo sapiens) (UniProt P11802); settings: Compound concentration 100.0 nM
[12] = biological target: Interferon-induced, double-stranded RNA-activated protein kinase (Homo sapiens) (UniProt P19525); settings: Compound concentration 100.0 nM
[13] = system: Epidermal growth factor receptor (Homo sapiens), P00533 [UNDEFINED MUTATION]; settings: Compound concentration 100.0 nM
[14] = biological target: 5'-AMP-activated protein kinase catalytic subunit alpha-2 (Homo sapiens) (UniProt P54646); settings: Compound concentration 100.0 nM
[15] = biological target: Mitogen-activated protein kinase kinase kinase 3 (Homo sapiens) (UniProt Q99759); settings: Compound concentration 100.0 nM
[16] = biological target: Calcium-dependent protein kinase 1 (Plasmodium falciparum) (UniProt P62344); settings: Compound concentration 100.0 nM
[17] = biological target: Serine/threonine-protein kinase MRCK alpha (Homo sapiens) (UniProt Q5VT25); settings: Compound concentration 100.0 nM
[18] = biological target: Serine/threonine-protein kinase PAK 5 (Homo sapiens) (UniProt Q9P286); settings: Compound concentration 100.0 nM
[19] = biological target: Sigma intracellular receptor 2 (Homo sapiens, UniProt Q5BJF2); settings: Compound concentration 10.0 uM
[20] = biological target: Calcium/calmodulin-dependent protein kinase type 1D (Homo sapiens) (UniProt Q8IU85); settings: Compound concentration 100.0 nM
Chain of Calcium/calmodulin-dependent protein kinase type 1D (Homo sapiens) (Q8IU85 whole entry, looked up): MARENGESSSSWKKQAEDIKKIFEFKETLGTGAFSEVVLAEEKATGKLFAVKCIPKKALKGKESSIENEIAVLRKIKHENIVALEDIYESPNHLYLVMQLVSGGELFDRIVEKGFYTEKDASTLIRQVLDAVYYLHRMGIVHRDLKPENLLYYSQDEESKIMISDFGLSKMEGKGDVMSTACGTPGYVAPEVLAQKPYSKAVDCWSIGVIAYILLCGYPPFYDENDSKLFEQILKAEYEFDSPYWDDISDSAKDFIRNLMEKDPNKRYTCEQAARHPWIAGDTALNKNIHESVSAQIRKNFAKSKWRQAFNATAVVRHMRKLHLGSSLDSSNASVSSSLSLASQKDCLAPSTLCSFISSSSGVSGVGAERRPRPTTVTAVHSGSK

[21] = biological target: Interleukin-1 receptor-associated kinase 3 (Homo sapiens) (UniProt Q9Y616); settings: Compound concentration 100.0 nM
Chain of Interleukin-1 receptor-associated kinase 3 (Homo sapiens) (Q9Y616 whole entry): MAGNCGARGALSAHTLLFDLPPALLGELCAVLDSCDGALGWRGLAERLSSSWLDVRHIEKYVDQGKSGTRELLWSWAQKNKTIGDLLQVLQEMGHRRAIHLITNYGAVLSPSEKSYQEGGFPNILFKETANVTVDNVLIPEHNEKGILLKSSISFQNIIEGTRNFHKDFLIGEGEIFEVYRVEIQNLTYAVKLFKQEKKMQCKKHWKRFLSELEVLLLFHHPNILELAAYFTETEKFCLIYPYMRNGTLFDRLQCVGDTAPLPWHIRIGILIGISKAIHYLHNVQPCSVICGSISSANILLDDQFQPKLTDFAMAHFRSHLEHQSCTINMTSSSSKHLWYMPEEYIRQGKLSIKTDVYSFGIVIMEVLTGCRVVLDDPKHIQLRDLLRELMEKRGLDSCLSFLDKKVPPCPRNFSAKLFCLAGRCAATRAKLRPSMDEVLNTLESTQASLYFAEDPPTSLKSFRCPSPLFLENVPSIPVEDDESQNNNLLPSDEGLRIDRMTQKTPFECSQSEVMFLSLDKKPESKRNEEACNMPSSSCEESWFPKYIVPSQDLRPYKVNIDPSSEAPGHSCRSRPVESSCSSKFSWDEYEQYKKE

[22] = system: Tyrosine-protein kinase ABL1 (Homo sapiens), P00519 [F317L]; settings: Compound concentration 100.0 nM
[23] = biological target: Insulin-like growth factor 1 receptor (Homo sapiens) (UniProt P08069); settings: Compound concentration 100.0 nM
Chain of Insulin-like growth factor 1 receptor (Homo sapiens) (P08069 31-736 limits assumed): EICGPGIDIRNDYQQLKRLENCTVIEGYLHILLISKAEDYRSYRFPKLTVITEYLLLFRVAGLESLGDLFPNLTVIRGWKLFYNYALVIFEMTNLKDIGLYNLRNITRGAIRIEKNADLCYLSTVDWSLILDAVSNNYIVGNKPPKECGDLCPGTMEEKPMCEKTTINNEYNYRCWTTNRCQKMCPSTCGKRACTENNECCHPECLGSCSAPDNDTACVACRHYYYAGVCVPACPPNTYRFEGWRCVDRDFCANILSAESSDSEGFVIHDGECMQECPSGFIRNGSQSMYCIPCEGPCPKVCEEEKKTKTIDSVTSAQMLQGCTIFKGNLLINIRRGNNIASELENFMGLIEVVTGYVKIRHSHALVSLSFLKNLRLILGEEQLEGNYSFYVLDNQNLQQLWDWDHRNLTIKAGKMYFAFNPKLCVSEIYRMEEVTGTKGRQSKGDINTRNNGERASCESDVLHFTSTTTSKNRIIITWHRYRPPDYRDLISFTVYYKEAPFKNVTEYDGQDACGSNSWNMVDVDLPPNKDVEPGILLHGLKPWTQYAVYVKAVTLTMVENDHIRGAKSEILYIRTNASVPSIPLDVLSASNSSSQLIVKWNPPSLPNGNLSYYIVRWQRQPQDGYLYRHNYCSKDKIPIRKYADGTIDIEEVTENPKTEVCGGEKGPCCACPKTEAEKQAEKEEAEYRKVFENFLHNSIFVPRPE
Chain of Insulin-like growth factor 1 receptor (Homo sapiens) (P08069 741-1367 limits assumed): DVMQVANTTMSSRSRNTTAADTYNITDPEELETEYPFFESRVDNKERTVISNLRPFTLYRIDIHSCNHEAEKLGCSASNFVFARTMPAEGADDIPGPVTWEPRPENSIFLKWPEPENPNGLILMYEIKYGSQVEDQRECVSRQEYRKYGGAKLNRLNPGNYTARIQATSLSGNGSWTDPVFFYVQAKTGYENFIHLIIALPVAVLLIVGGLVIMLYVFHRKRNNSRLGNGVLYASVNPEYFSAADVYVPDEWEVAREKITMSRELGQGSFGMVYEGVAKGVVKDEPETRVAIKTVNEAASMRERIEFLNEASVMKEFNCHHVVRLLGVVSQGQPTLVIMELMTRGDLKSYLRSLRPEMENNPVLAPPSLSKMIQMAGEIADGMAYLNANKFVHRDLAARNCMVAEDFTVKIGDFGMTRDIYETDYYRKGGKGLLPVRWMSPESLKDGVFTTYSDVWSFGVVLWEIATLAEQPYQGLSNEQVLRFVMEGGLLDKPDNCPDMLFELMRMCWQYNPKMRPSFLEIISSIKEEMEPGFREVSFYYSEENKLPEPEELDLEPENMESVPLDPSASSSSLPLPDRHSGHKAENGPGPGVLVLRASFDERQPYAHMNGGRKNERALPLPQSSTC

[24] = system: Receptor-type tyrosine-protein kinase FLT3 (Homo sapiens), P36888 [D835V]; settings: Compound concentration 100.0 nM
[25] = biological target: Serine/threonine-protein kinase MRCK beta (Homo sapiens) (UniProt Q9Y5S2); settings: Compound concentration 100.0 nM
[26] = biological target: 5'-AMP-activated protein kinase catalytic subunit alpha-1 (Homo sapiens) (UniProt Q13131); settings: Compound concentration 100.0 nM
Chain of 5'-AMP-activated protein kinase catalytic subunit alpha-1 (Homo sapiens) (Q13131 whole entry, looked up): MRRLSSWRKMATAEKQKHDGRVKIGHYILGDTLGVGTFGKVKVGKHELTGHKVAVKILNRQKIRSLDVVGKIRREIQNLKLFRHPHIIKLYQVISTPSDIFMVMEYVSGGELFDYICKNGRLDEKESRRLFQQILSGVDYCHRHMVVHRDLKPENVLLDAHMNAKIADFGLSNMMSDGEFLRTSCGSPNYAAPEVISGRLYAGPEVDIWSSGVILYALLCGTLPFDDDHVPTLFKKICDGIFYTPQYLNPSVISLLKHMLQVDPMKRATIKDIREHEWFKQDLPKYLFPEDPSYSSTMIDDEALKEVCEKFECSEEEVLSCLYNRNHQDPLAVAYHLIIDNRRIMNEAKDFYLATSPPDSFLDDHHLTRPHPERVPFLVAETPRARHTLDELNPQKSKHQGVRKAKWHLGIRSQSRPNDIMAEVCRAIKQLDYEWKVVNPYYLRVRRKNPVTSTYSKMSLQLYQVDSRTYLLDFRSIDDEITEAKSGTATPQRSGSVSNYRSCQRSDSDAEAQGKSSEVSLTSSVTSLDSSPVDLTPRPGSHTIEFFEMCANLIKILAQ

[27] = biological target: Ephrin type-B receptor 1 (Homo sapiens) (UniProt P54762); settings: Compound concentration 100.0 nM
[28] = biological target: Ephrin type-B receptor 4 (Homo sapiens) (UniProt P54760); settings: Compound concentration 100.0 nM
[29] = biological target: Myosin light chain kinase, smooth muscle (Homo sapiens) (UniProt Q15746); settings: Compound concentration 100.0 nM
[30] = biological target: Protein kinase C theta type (Homo sapiens) (UniProt Q04759); settings: Compound concentration 100.0 nM
[31] = biological target: Rho-associated protein kinase 1 (Homo sapiens) (UniProt Q13464); settings: Compound concentration 100.0 nM
[32] = biological target: Calcium/calmodulin-dependent protein kinase kinase 1 (Homo sapiens) (UniProt Q8N5S9); settings: Compound concentration 100.0 nM
[33] = biological target: 5-hydroxytryptamine receptor 1D (Homo sapiens) (UniProt P28221); settings: Compound concentration 10.0 uM
[34] = biological target: Rhodopsin kinase GRK1 (Homo sapiens) (UniProt Q15835); settings: Compound concentration 100.0 nM
[35] = biological target: Mitogen-activated protein kinase kinase kinase kinase 4 (Homo sapiens) (UniProt O95819); settings: Compound concentration 100.0 nM
[36] = biological target: Phosphatidylinositol 4-phosphate 5-kinase type-1 gamma (Homo sapiens) (UniProt O60331); settings: Compound concentration 100.0 nM
[37] = biological target: Proto-oncogene tyrosine-protein kinase Src (Homo sapiens) (UniProt P12931); settings: Compound concentration 100.0 nM
[38] = biological target: Sodium-dependent noradrenaline transporter (Homo sapiens) (UniProt P23975); settings: Compound concentration 10.0 uM
[39] = biological target: Calcium/calmodulin-dependent protein kinase type II subunit gamma (Homo sapiens) (UniProt Q13555); settings: Compound concentration 100.0 nM
[40] = biological target: Vascular endothelial growth factor receptor 1 (Homo sapiens) (UniProt P17948); settings: Compound concentration 100.0 nM
[41] = biological target: Cyclin-dependent kinase 16 (Homo sapiens) (UniProt Q00536); settings: Compound concentration 100.0 nM
[42] = biological target: Rhodopsin kinase GRK7 (Homo sapiens) (UniProt Q8WTQ7); settings: Compound concentration 100.0 nM
Chain of Rhodopsin kinase GRK7 (Homo sapiens) (Q8WTQ7 whole entry): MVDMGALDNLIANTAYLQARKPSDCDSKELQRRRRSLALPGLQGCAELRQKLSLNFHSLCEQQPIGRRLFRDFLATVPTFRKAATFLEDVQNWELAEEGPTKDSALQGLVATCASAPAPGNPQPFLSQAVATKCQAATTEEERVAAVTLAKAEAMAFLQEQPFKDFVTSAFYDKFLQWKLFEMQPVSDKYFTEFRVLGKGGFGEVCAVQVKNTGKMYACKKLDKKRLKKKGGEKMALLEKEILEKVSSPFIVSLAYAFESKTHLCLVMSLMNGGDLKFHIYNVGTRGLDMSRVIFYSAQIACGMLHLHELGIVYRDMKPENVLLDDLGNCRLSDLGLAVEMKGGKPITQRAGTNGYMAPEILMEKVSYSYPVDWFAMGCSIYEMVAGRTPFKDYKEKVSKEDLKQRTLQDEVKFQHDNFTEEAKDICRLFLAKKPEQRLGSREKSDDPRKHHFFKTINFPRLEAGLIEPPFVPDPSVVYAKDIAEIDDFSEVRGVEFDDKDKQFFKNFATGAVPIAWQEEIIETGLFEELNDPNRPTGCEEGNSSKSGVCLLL

[43] = biological target: Homeodomain-interacting protein kinase 3 (Homo sapiens) (UniProt Q9H422); settings: Compound concentration 100.0 nM
[44] = biological target: Tyrosine-protein kinase Fyn (Homo sapiens) (UniProt P06241); settings: Compound concentration 100.0 nM
[45] = biological target: Alpha-2C adrenergic receptor (Homo sapiens) (UniProt P18825); settings: Compound concentration 10.0 uM
Chain of Alpha-2C adrenergic receptor (Homo sapiens) (P18825 whole entry): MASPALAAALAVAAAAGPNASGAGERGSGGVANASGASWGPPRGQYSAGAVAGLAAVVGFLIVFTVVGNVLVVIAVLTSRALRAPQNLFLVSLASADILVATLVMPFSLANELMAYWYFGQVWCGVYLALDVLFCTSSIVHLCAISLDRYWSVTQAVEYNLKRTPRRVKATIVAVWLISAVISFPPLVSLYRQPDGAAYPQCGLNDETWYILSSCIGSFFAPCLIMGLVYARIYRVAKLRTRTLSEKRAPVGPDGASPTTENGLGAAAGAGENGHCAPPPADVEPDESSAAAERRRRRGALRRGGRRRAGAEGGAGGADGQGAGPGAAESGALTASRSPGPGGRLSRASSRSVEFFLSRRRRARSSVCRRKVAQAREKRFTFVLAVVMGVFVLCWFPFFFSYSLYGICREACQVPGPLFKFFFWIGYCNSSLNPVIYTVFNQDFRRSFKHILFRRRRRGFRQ

## Nc1c(C(=O)NCc2ccc(C(=O)NCCCC3CCCCC3)cc2)cnn1-c1ccccc1 [SR-318]
[1]
  residual activity: 100%
[2]
  residual activity: 90%
[3]
  residual activity: 100%
[4]
  residual activity: 100%
[5]
  residual activity: 100%
[6]
  residual activity: 78%
[7]
  residual activity: 98%
[8]
  residual activity: 74%
[9]
  residual activity: 100%
[10]
  residual activity: 96%
[11]
  residual activity: 100%
[12]
  residual activity: 54%
[13]
  residual activity: 100%
[14]
  residual activity: 100%
[15]
  residual activity: 100%
[16]
  residual activity: 86%
[17]
  residual activity: 100%
[18]
  residual activity: 100%
[19]
  inhibition: 45.3%
[20]
  residual activity: 93%
[21]
  residual activity: 94%
[22]
  residual activity: 100%
[23]
  residual activity: 98%
[24]
  residual activity: 100%
[25]
  residual activity: 100%
[26]
  residual activity: 100%
[27]
  residual activity: 100%
[28]
  residual activity: 100%
[29]
  residual activity: 68%
[30]
  residual activity: 100%
[31]
  residual activity: 100%
[32]
  residual activity: 100%
[33]
  inhibition: 27.6%
[34]
  residual activity: 100%
[35]
  residual activity: 87%
[36]
  residual activity: 93%
[37]
  residual activity: 100%
[38]
  inhibition: 13.5%
[39]
  residual activity: 100%
[40]
  residual activity: 100%
[41]
  residual activity: 97%
[42]
  residual activity: 100%
[43]
  residual activity: 100%
[44]
  residual activity: 100%
[45]
  inhibition: 18.1%

## O=C(NCCCC1CCCCC1)c1ccc(CNC(=O)c2cnn(-c3ccccc3)c2C(F)(F)F)cc1 [SR-321]
[1]
  residual activity: 100%
[2]
  residual activity: 100%
[3]
  residual activity: 86%
[4]
  residual activity: 100%
[5]
  residual activity: 100%
[6]
  residual activity: 100%
[7]
  residual activity: 90%
[8]
  residual activity: 100%
[9]
  residual activity: 100%
[10]
  residual activity: 67%
[11]
  residual activity: 96%
[12]
  residual activity: 64%
[13]
  residual activity: 100%
[14]
  residual activity: 100%
[15]
  residual activity: 100%
[16]
  residual activity: 100%
[17]
  residual activity: 100%
[18]
  residual activity: 100%
[19]
  inhibition: 54.8%
[20]
  residual activity: 100%
[21]
  residual activity: 100%
[22]
  residual activity: 100%
[23]
  residual activity: 100%
[24]
  residual activity: 88%
[25]
  residual activity: 100%
[26]
  residual activity: 100%
[27]
  residual activity: 89%
[28]
  residual activity: 95%
[29]
  residual activity: 100%
[30]
  residual activity: 100%
[31]
  residual activity: 100%
[32]
  residual activity: 100%
[33]
  inhibition: -8.35%
[34]
  residual activity: 94%
[35]
  residual activity: 81%
[36]
  residual activity: 90%
[37]
  residual activity: 100%
[38]
  inhibition: -1.78%
[39]
  residual activity: 100%
[40]
  residual activity: 100%
[41]
  residual activity: 100%
[42]
  residual activity: 100%
[43]
  residual activity: 88%
[44]
  residual activity: 86%
[45]
  inhibition: 3.68%
